Reference: US20230277669A1, “USES OF UROLITHINS” (Amazentis SA, priority 2022, published 2023)

Tested on: APTK-s.c. tumors
Assay: Oral UA in mice with established s.c. APTK tumors
Format: in vivo, C57BL/6 mice
Excerpt: Oral UA confers anti-tumor effects in murine colorectal cancer in a T-cell dependent manner. (FIG. 1A) Schematic representation of AOM model and different UA containing diets. (FIG. 1B) Representative images of swiss-roll sections from AOM-induced colon tumors. Scale bars are 2 mm (upper row) and 300 µm (lower row), respectively. (FIG. 1C) Tumor incidence of AOM-induced tumors receiving different UA-containing diets; n=4/5/5. Data are mean ±SD, depicting one of two independent experiments. *p < 0.05 by two-sided t-test. (FIG. 1D) Average lesion size of AOM-induced tumors receiving different UA-containing diets; n=4/5/5. Data are mean ±SD, depicting one of two independent experiments. *p < 0.05 by two-sided t-test. (FIG. 1E) Relative number of CD45^+CD3^+ T cells in colons of AOM-treated mice at week 24 (n>7, pooled from two independent experiments). Data are mean ± SD, **p < 0.01 by two-sided t-test. (FIG. 1F) Organoid treatment scheme. APTK-organoids were incubated in the presence of UA or DMSO for the indicated time points, prior to flow cytometric analysis. (FIG. 1G) Quantification of lysosome formation as assessed by lysotracker MFI via flow cytometry after 24 h incubation at the presence of various UA concentrations (n=5/4/4). Depicts one out of two indepdent experiments. Data are mean ± SD, *p < 0.05; **p < 0.01 as established via two-sided t-test. (FIG. 1H) Mitotracker signal of APTK organoids incubated for 24 h at the presence of UA in vitro (n=4/4/4) and antigen presentation via MHC-I molecules (I) after 48 h of treatment (n=4/4/4). Results from one out of two independent experiments are shown. Data are mean ± SD, statistical analysis was performed via two-sided t-test, *p < 0.05; **p < 0.01, ****p < 0.0001. (FIG. 1I) Upregulation of MHC-I by UA. (FIG. 1J) Experimental setup of oral UA administration in mice with established APTK-s.c. tumors. Treatment diet was initiated eleven days after tumor injection and maintained until the end of the experiment. (FIG. 1K) Growth curve of mice subcutaneously transplanted with APTK tumors, receiving either UA-containing or control food (n=7 per group). Data are mean ± SD, ***p <0.001 by two-sided t-test. One out of two independent experiments are shown. (FIG. 1L) End point tumor weight, (FIG. 1M) CD8+ T cell infiltration in APTK-s.c. tumors assessed by flow cytometry, normalising total number of CD8^+ T cells to tumor weight (n=7 per group). Data are mean ± SD, statistical analysis was performed via Mann-Whitney test, *p < 0.05 and ***p <0.001. (FIG. 1N) Size of subcutaneous APTK tumors in Rag1^-/- mice receiving UA-containing or control food (n=7 per group). Treatment was initiated as depicted in FIG. 1J. Data are mean +-SD, depicting one out of two independent experiments. […]

## O=c1oc2cc(O)ccc2c2ccc(O)cc12 [Urolithin A]
CD8+ T cell depleting antibodies, UA-containing or control food
  tumor growth: exacerbated tumor growth in both control and UA-fed cohorts
UA-containing food plus a-PD1
  tumor growth: sensitized APTK tumors to PD-1 blockade
high-dose UA diet (2.28 g/kg)
  CD8+ T cell infiltration: enhanced CD8^+ T cell infiltration
high-dose UA diet (2.28 g/kg), started eleven days after tumor injection
  tumor growth: significantly reduced tumor growth
